Target: T1, Proteinase-activated receptor 2 (Homo sapiens, UniProt P55085)
T1 sequence (P55085 whole entry): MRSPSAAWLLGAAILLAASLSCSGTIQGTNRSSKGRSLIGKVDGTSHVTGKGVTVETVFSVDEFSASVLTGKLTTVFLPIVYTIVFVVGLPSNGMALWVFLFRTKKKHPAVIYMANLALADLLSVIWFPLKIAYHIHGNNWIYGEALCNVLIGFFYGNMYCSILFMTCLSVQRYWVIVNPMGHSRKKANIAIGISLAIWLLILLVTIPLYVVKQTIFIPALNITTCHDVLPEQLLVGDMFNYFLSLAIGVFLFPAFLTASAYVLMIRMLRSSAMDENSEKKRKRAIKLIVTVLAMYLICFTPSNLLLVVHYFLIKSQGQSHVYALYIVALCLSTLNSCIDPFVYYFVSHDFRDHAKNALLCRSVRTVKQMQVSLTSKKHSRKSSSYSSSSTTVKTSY
Experiment: Antagonist activity at PAR2 in human HT-29 cells assessed as inhibition of 2f-LIGRLO-NH2-stimulated intracellular calcium release preincubated for 30 mins followed by 2f-LIGRLO-NH2 stimulation measured for 60 sec by Fluo-3 AM dye based FLIPR assay

IC50: 7.94 µM
SMILES: CC[C@H](C)[C@H](NC(=O)[C@H](CC1CCCCC1)NC(=O)c1ccno1)C(=O)N1CCCC[C@H]1C(=O)NC(C)(C)C
